{
  "source": "ChEMBL document CHEMBL5728776",
  "about": "“Hydrocarbylsulfonyl-substituted pyridines and their use in the treatment of cancer” (2021)",
  "key": {"[1]": {"molecular_target": "T1, Glutathione reductase, mitochondrial (Homo sapiens, UniProt P00390)", "T1 sequence (P00390 whole entry)": "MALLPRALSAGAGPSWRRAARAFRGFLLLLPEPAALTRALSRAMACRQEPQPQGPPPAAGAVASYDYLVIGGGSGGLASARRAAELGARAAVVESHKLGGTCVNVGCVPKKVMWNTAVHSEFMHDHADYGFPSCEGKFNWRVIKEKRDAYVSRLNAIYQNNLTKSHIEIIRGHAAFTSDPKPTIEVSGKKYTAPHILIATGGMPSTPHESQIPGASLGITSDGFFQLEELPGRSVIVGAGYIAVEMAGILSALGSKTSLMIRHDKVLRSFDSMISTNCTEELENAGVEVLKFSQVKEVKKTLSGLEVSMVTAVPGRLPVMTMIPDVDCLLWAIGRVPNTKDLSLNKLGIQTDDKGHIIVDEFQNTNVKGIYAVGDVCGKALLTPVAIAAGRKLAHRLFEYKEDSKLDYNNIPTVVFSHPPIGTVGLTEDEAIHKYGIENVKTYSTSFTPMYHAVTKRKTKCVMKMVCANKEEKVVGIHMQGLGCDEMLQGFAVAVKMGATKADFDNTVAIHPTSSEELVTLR", "assay": "(§1) Inhibition of Recombinant TrxR1: Small molecule inhibition of recombinant thioredoxin reductase 1 (TrxR1) and gluthathione reductase (GR) was examined in 96-well plate format. 30 nM TrxR1 was incubated in the presence of 250 μM NADPH, 0.1 mg/ml BSA, and various concentrations of compound (1% DMSO final) in 50 mM Tris (pH 7.5) and 2 mM EDTA buffer for 15 minutes. Following the incubation period, 2 mM DTNB was added to each well and the change in O.D. at 412 nm was followed. Percent activity was determined using DMSO vehicle and no TrxR1 (blank) controls. 2 nM GR was incubated in the presence of 250 μM NADPH, 0.1 mg/ml BSA, and various concentrations of compounds (1% DMSO final) in 50 mM Tris (pH 7.5) and 2 mM EDTA buffer for 15 minutes. Following the incubation period, 1 mM GSSG was added to each well and the change in O.D. at 340 nm was followed. Percent activity was determined using DMSO vehicle and no GR (blank) controls."}, "[2]": {"molecular_target": "T2, Thioredoxin reductase 1, cytoplasmic (Homo sapiens, UniProt Q16881)", "T2 sequence (Q16881 whole entry)": "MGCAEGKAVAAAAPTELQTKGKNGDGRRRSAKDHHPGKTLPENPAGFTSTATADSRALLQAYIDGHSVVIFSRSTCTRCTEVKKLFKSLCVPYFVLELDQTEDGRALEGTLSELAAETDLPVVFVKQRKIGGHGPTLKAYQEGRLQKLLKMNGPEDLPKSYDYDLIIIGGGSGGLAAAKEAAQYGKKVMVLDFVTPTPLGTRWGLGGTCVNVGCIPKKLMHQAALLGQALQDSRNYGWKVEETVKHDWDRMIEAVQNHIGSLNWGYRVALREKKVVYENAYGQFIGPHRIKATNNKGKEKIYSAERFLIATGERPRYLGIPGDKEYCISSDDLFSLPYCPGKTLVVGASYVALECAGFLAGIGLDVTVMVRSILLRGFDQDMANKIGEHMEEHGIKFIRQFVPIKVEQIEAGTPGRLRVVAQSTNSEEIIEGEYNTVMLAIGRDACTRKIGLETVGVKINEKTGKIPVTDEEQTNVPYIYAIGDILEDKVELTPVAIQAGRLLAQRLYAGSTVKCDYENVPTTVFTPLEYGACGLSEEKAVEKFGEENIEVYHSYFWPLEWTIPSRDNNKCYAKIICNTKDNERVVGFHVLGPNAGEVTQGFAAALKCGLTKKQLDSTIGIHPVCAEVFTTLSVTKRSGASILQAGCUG", "assay": "as §1"}},
  "data": [
    {"compound": "CN(C)c1ccc([N+](=O)[O-])c(S(=O)(=O)Cc2ccccc2)n1", "values": [
      {"measurement": "IC50", "setting": "[1]", "value": "> 100000", "unit": "nM"},
      {"measurement": "IC50", "setting": "[2]", "value": 276, "unit": "nM"}
    ]}
  ]
}
